Measurements: ChEMBL document CHEMBL1134898, “Synthesis and biological evaluation of novel D-2'-azido-2',3'-dideoxyarabinofuranosyl-4'-thiopyrimidines and purines” (Bioorg Med Chem Lett, 2002)
Converted amounts (≈) assume the structure as drawn.

What was measured:
[1] = tested on: MT4; assay: Compound was tested for antiviral activity indicative of 50% cytopathic concentration in virus (HIV-1) infected MT-4 cells.; type: functional, cell-based; details: Homo sapiens
[2] = tested on: MT4; assay: Cytotoxicity indicative of 50% survival concentration in virus-uninfected MT-4 cells.; type: functional; details: Homo sapiens
[3] = tested on: Human alphaherpesvirus 1; assay: Compound was tested for antiviral activity against HSV-1; type: functional, organism-based
[4] = tested on: Human alphaherpesvirus 2; assay: Compound was tested for antiviral activity against HSV-2; type: functional, organism-based
[5] = tested on: MT4; assay: Cytotoxicity indicative of 50% survival concentration in virus -uninfected MT-4 cells.; type: functional; details: Homo sapiens
[6] = tested on: MT4; assay: Cytotoxicity indicative of 50% survival concentration in HSV-1-uninfected MT-4 cells.; type: functional; details: Homo sapiens
[7] = tested on: MT4; assay: Cytotoxicity indicative of 50% survival concentration in HSV-2-uninfected MT-4 cells.; type: functional; details: Homo sapiens

Structure (SMILES) | EC50 [3] [µg/mL] | EC50 [4] [µg/mL] | EC50 [1] [µg/mL] | CC50 [2] [µg/mL] | CC50 [5] [µg/mL] | CC50 [6] [µg/mL] | CC50 [7] [µg/mL]
[N-]=[N+]=N[C@H]1C[C@@H](CO)S[C@H]1n1ccc(N)nc1=O | > 100 | > 100 | > 41.7 | – | 41.7 (≈ 155 µM) | – | –
Cc1cn([C@H]2S[C@H](CO)C[C@@H]2N=[N+]=[N-])c(=O)[nH]c1=O | > 100 | > 100 | > 63.5 | 63.5 (≈ 224 µM) | – | – | –
Cc1cn([C@@H]2S[C@H](CO)C[C@@H]2N=[N+]=[N-])c(=O)[nH]c1=O | > 100 | > 100 | > 56.5 | 56.1 (≈ 198 µM) | – | – | –
Cc1cn([C@H]2C[C@H](N=[N+]=[N-])[C@@H](CO)O2)c(=O)[nH]c1=O [ZIDOVUDINE] | 0.52 (≈ 1.95 µM) | > 100 | 0.0005 (≈ 0.00187 µM) | 0.52 (≈ 1.95 µM) | – | – | –

Second part, led by results:

EC50 [3] [µg/mL] | EC50 [4] [µg/mL] | Structure (SMILES) | EC50 [1] [µg/mL] | CC50 [2] [µg/mL] | CC50 [5] [µg/mL] | CC50 [6] [µg/mL] | CC50 [7] [µg/mL]
> 100 | > 100 | [N-]=[N+]=NC1C[C@@H](CO)S[C@@H]1n1ccc(N)nc1=O (stereo not given in full) | > 100 | > 100 | – | – | –
> 100 | > 100 | [N-]=[N+]=N[C@H]1C[C@@H](CO)S[C@@H]1n1cnc2c(N)ncnc21 | > 17.3 | 17.3 (≈ 59.2 µM) | – | – | –
> 100 | > 100 | [N-]=[N+]=N[C@H]1C[C@@H](CO)S[C@H]1n1cnc2c(N)ncnc21 | > 66.6 | 66.6 (≈ 228 µM) | – | – | –
> 100 | > 100 | CNc1ncnc2c1ncn2[C@H]1S[C@H](CO)C[C@@H]1N=[N+]=[N-] | > 61.5 | 61.5 (≈ 201 µM) | – | – | –
> 100 | > 100 | CNc1ncnc2c1ncn2[C@@H]1SC(CO)C[C@@H]1N=[N+]=[N-] (single isomer, unassigned) | > 48.1 | 48.1 (≈ 157 µM) | – | – | –
0.13 (≈ 0.577 µM) | 0.88 (≈ 3.91 µM) | Nc1nc2c(ncn2COCCO)c(=O)[nH]1 [ACYCLOVIR] | – | – | – | > 76.6 | > 11.4
